{"source": "patent US20040049009A1", "about": "“Methods for improving the antagonistic/agonistic properties of peptidic antagonists/agonists of the corticotropin-releasing factor receptor (crfr)” (priority 2000, published 2004)", "key": {"C57BL/6J mice": {"test_system": "C57BL/6J mice", "assay": "Elevated plus-maze test, icv injection, oCRF-induced behavior", "format": "in vivo, mouse"}, "rCRFR1 [1]": {"molecular_target": "T1, rCRFR1 (Rattus norvegicus, UniProt P35353)", "T1 sequence (P35353 24-415)": "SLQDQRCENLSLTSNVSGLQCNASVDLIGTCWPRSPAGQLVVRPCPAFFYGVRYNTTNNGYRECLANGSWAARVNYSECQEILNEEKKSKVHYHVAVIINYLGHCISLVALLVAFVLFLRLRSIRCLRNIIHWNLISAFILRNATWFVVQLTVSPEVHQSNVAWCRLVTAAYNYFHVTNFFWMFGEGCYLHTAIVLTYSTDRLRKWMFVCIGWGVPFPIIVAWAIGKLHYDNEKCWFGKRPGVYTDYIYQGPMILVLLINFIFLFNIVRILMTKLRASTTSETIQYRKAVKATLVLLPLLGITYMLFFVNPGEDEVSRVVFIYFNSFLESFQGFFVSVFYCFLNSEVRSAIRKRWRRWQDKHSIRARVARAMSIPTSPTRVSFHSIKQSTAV"}, "mCRFR2β": {"molecular_target": "T2, mCRFR2β (Mus musculus, UniProt Q60748)", "T2 construct": "expressed in transfected cells", "T2 sequence (Q60748 1-431 isoform Q60748-2)": "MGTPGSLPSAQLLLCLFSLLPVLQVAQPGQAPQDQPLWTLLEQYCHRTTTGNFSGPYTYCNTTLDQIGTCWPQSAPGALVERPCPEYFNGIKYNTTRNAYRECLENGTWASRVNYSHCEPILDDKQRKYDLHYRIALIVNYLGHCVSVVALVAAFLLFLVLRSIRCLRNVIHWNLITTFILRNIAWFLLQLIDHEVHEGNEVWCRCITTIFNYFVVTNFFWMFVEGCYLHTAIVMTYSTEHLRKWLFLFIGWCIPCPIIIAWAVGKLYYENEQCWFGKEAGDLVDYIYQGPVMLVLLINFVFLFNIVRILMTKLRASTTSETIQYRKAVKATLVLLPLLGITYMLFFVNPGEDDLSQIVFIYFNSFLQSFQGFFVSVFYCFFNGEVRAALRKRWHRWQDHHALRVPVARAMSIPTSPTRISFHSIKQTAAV", "assay": "Intracellular cAMP accumulation in mCRFR2β-HEK 293 cells", "format": "cell-based", "settings": "for Rel. intrinsic activity mCRFR2β: cAMP after 1 μM antagonist relative to Svg stimulation, 95% CI in parentheses; for Rel. potency of antagonist mCRFR2β: inhibition of cAMP accumulation after 1 nM Svg"}, "rCRFR1 [2]": {"molecular_target": "T1, rCRFR1", "assay": "Competitive binding to rCRFR1, SPA on HEK-293 membrane fractions with [125I-Tyr0]h/rCRF", "settings": "binding affinities CRFR1 vs CRFR2"}, "[3]": {"assay": "Isoelectric focusing (IEF)", "format": "physicochemical", "settings": "determined by isoelectric focussing"}}}
{"molecule": "α-helical CRF^9-41 [α-hel-CRF^9-41]", "values": [{"measurement": "change of oCRF-induced behavioral effects in plus-maze test", "setting": "C57BL/6J mice; 120 pmol antagonist icv before 35 pmol oCRF", "result": "no significant change"}, {"measurement": "Emax", "setting": "rCRFR1 [1]", "result": 19, "unit": "%"}, {"measurement": "Rel. intrinsic activity mCRFR2β", "setting": "mCRFR2β", "result": "1.4 (1.2-1.5) %"}, {"measurement": "Rel. potency of antagonist mCRFR2β", "setting": "mCRFR2β", "result": "97 (96-97) %"}]}
{"molecule": "h/rCRF", "values": [{"measurement": "selectivity favoring CRFR1 (over CRFR2), factor", "setting": "rCRFR1 [2]", "result": 30}]}
{"molecule": "oCRF", "values": [{"measurement": "effect on oCRF-elicited anxious behavior in elevated plus maze (Example 9)", "setting": "C57BL/6J mice; 220 ng [E11]Ast icv, 10 min later 90 ng oCRF, threefold molar excess", "result": "elicited anxious behavior"}, {"measurement": "anxiety-like behavior (open arm visits, % time in open arms)", "setting": "C57BL/6J mice; icv 20 pmol (90 ng) oCRF", "result": "enhanced"}, {"measurement": "locomotion (total distance crossed) in elevated plus-maze", "setting": "C57BL/6J mice; icv 20 pmol (90 ng) oCRF", "result": "markedly decreased"}, {"measurement": "behavior effects at higher agonist dose", "setting": "C57BL/6J mice; icv 35 pmol (170 ng) oCRF", "result": "significantly enhanced"}]}
{"molecule": "anti-sauvagine-30 [aSvg-30]", "values": [{"measurement": "Emax", "setting": "rCRFR1 [1]", "result": 6.5, "unit": "%"}, {"measurement": "Rel. intrinsic activity mCRFR2β", "setting": "mCRFR2β", "result": "1.0 (0.9-1.1) %"}, {"measurement": "Rel. potency of antagonist mCRFR2β", "setting": "mCRFR2β", "result": "99 (98-99) %"}]}
{"molecule": "CC[C@H](C)[C@H](NC(=O)[C@@H](NC(=O)[C@H](CC(=O)O)NC(=O)[C@H](CC(C)C)NC(=O)[C@H](CC(C)C)NC(=O)[C@H](CC(C)C)NC(=O)[C@H](CCCNC(=N)N)NC(=O)[C@H](CC(N)=O)NC(=O)[C@H](CC(N)=O)NC(=O)[C@H](C)NC(=O)[C@H](C)NC(=O)[C@H](CCC(N)=O)NC(=O)[C@H](CCC(N)=O)NC(=O)[C@H](CCCCN)NC(=O)[C@H](CCC(=O)O)NC(=O)[C@H](CCCCN)NC(=O)[C@H](CCC(=O)O)NC(=O)[C@H](CCC(N)=O)NC(=O)[C@H](CCCCN)NC(=O)[C@H](CCC(=O)O)NC(=O)[C@@H](NC(=O)[C@H](CCC(=O)O)NC(=O)[C@@H](NC(=O)[C@H](CCSC)NC(=O)[C@H](CCCCN)NC(=O)[C@H](CCCNC(=N)N)NC(=O)[C@H](CC(C)C)NC(=O)[C@H](CC(C)C)NC(=O)[C@H](CCC(=O)O)NC(=O)[C@H](CC(C)C)NC(=O)[C@H](CO)NC(=O)[C@H](CC(C)C)NC(=O)[C@H](CC(=O)O)NC(=O)[C@@H](NC(=O)[C@H](CO)NC(=O)[C@@H](NC(=O)[C@@H]1CCCN1C(=O)[C@@H]1CCCN1C(=O)CNC(=O)[C@@H]1CCC(=O)N1)[C@@H](C)CC)[C@@H](C)CC)[C@@H](C)CC)[C@@H](C)CC)[C@@H](C)O)C(N)=O", "note": "[Svg, sauvagine]", "values": [{"measurement": "Isoelectric point", "setting": "[3]", "result": 5.1}]}
